Laboratory results from publication PMC9481151, “Discovery of new symmetrical and asymmetrical nitrile-containing 1,4-dihydropyridine derivatives as dual kinases and P-glycoprotein inhibitors: synthesis, in vitro assays, and in silico studies” (Journal of Enzyme Inhibition and Medicinal Chemistry, 2022).

Key:
OVCAR-8 = assay: NCI single dose (10 µM) SRB screen; type: cell-based, human; details: ovarian cancer, 48 h
SW-620 = assay: NCI single dose (10 µM) SRB screen; type: cell-based, human; details: colon cancer, 48 h
DU-145 = assay: NCI single dose (10 µM) SRB screen; type: cell-based, human; details: prostate cancer, 48 h
MDA-MB-231 = assay: NCI single dose (10 µM) SRB screen; type: cell-based, human; details: breast cancer, 48 h
HT29 = assay: NCI single dose (10 µM) SRB screen; type: cell-based, human; details: colon cancer, 48 h
LOX IMVI = assay: NCI single dose (10 µM) SRB screen; type: cell-based, human; details: melanoma, 48 h
MOLT-4 = assay: NCI single dose (10 µM) SRB screen; type: cell-based, human; details: leukaemia, 48 h
HOP-62 = assay: NCI single dose (10 µM) SRB screen; type: cell-based, human; details: non-small cell lung cancer, 48 h
SK-MEL-5 = assay: NCI single dose (10 µM) SRB screen; type: cell-based, human; details: melanoma, 48 h
MDA-MB-435 = assay: NCI single dose (10 µM) SRB screen; type: cell-based, human; details: melanoma, 48 h
A498 = assay: NCI single dose (10 µM) SRB screen; type: cell-based, human; details: renal cancer, 48 h
SF-268 = assay: NCI single dose (10 µM) SRB screen; type: cell-based, human; details: CNS cancer, 48 h
NCI/ADR-RES = assay: NCI single dose (10 µM) SRB screen; type: cell-based, human; details: ovarian cancer, 48 h
SF-539 = assay: NCI single dose (10 µM) SRB screen; type: cell-based, human; details: CNS cancer, 48 h
EKVX = assay: NCI single dose (10 µM) SRB screen; type: cell-based, human; details: non-small cell lung cancer, 48 h
A549/ATCC = assay: NCI single dose (10 µM) SRB screen; type: cell-based, human; details: non-small cell lung cancer, 48 h

Row | Compound | melting point [°C] | GI% OVCAR-8 (OVCAR-8) | GI% SW-620 (SW-620) | GI% DU-145 (DU-145) | GI% MDA-MB-231 (MDA-MB-231) | GI% HT29 (HT29) | GI% LOX IMVI (LOX IMVI) | GI% MOLT-4 (MOLT-4) | GI% HOP-62 (HOP-62) | GI% SK-MEL-5 (SK-MEL-5) | GI% MDA-MB-435 (MDA-MB-435) | GI% A498 (A498) | GI% SF-268 (SF-268) | GI% NCI/ADR-RES (NCI/ADR-RES) | GI% SF-539 (SF-539) | GI% EKVX (EKVX) | GI% A549/ATCC (A549/ATCC)
1 | CC1=C(C(=O)OC(C)C)C(c2cccc(C#N)c2)C(C(=O)OC(C)C)=C(C)N1 [Compound 1c, Diisopropyl 4-(3-cyanophenyl)-2,6-dimethyl-1,4-dihydropyridine-3,5-dicarboxylate] | 124 to 125 | – (Only GI% ≥ 10 are shown) | – (Only GI% ≥ 10 are shown) | – (Only GI% ≥ 10 are shown) | – (Only GI% ≥ 10 are shown) | – (Only GI% ≥ 10 are shown) | – (Only GI% ≥ 10 are shown) | 17% | – (Only GI% ≥ 10 are shown) | – (Only GI% ≥ 10 are shown) | – (Only GI% ≥ 10 are shown) | – (Only GI% ≥ 10 are shown) | – (Only GI% ≥ 10 are shown) | – (Only GI% ≥ 10 are shown) | – (Only GI% ≥ 10 are shown) | – (Only GI% ≥ 10 are shown) | 11%
2 | COC(=O)C1=C(C)NC(C)=C(C(=O)OC)C1c1cccc(C#N)c1 [Compound 1a, Dimethyl 4-(3-cyanophenyl)-2,6-dimethyl-1,4-dihydropyridine-3,5-dicarboxylate] | 200 to 202 | – (Only GI% ≥ 10 are shown) | – (Only GI% ≥ 10 are shown) | – (Only GI% ≥ 10 are shown) | – (Only GI% ≥ 10 are shown) | – (Only GI% ≥ 10 are shown) | – (Only GI% ≥ 10 are shown) | – (Only GI% ≥ 10 are shown) | – (Only GI% ≥ 10 are shown) | – (Only GI% ≥ 10 are shown) | – (Only GI% ≥ 10 are shown) | – (Only GI% ≥ 10 are shown) | – (Only GI% ≥ 10 are shown) | – (Only GI% ≥ 10 are shown) | – (Only GI% ≥ 10 are shown) | – (Only GI% ≥ 10 are shown) | – (Only GI% ≥ 10 are shown)
3 | CCOC(=O)C1=C(C)NC(C)=C(C(=O)OCC)C1c1cccc(C#N)c1 [Compound 1b, Diethyl 4-(3-cyanophenyl)-2,6-dimethyl-1,4-dihydropyridine-3,5-dicarboxylate] | 144 to 146 | – (Only GI% ≥ 10 are shown) | – (Only GI% ≥ 10 are shown) | – (Only GI% ≥ 10 are shown) | – (Only GI% ≥ 10 are shown) | – (Only GI% ≥ 10 are shown) | – (Only GI% ≥ 10 are shown) | – (Only GI% ≥ 10 are shown) | – (Only GI% ≥ 10 are shown) | – (Only GI% ≥ 10 are shown) | 42% | – (Only GI% ≥ 10 are shown) | – (Only GI% ≥ 10 are shown) | – (Only GI% ≥ 10 are shown) | – (Only GI% ≥ 10 are shown) | – (Only GI% ≥ 10 are shown) | – (Only GI% ≥ 10 are shown)

The next lines start with results.

Row | melting point [°C] | Compound | GI% OVCAR-8 (OVCAR-8) | GI% SW-620 (SW-620) | GI% DU-145 (DU-145) | GI% MDA-MB-231 (MDA-MB-231) | GI% HT29 (HT29) | GI% LOX IMVI (LOX IMVI) | GI% MOLT-4 (MOLT-4) | GI% HOP-62 (HOP-62) | GI% SK-MEL-5 (SK-MEL-5) | GI% MDA-MB-435 (MDA-MB-435) | GI% A498 (A498) | GI% SF-268 (SF-268) | GI% NCI/ADR-RES (NCI/ADR-RES) | GI% SF-539 (SF-539) | GI% EKVX (EKVX) | GI% A549/ATCC (A549/ATCC)
4 | 133 to 135 | COC(=O)C1=C(C)NC(C)=C(C(=O)OCC(C)C)C1c1cccc(C#N)c1 (racemic) [Compound 2b, (±)-3-Isobutyl 5-methyl 4-(3-cyanophenyl)-2,6-dimethyl-1,4-dihydropyridine-3,5-dicarboxylate] | – (Only GI% ≥ 10 are shown) | – (Only GI% ≥ 10 are shown) | – (Only GI% ≥ 10 are shown) | – (Only GI% ≥ 10 are shown) | – (Only GI% ≥ 10 are shown) | – (Only GI% ≥ 10 are shown) | 16% | – (Only GI% ≥ 10 are shown) | – (Only GI% ≥ 10 are shown) | – (Only GI% ≥ 10 are shown) | – (Only GI% ≥ 10 are shown) | – (Only GI% ≥ 10 are shown) | – (Only GI% ≥ 10 are shown) | – (Only GI% ≥ 10 are shown) | 12% | – (Only GI% ≥ 10 are shown)
5 | 136 to 138 | CCOC(=O)C1=C(C)NC(C)=C(C(=O)OC(C)C)C1c1cccc(C#N)c1 (racemic) [Compound 2h, (±)-3-Ethyl 5-isopropyl 4-(3-cyanophenyl)-2,6-dimethyl-1,4-dihydropyridine-3,5-dicarboxylate] | – (Only GI% ≥ 10 are shown) | – (Only GI% ≥ 10 are shown) | – (Only GI% ≥ 10 are shown) | – (Only GI% ≥ 10 are shown) | – (Only GI% ≥ 10 are shown) | – (Only GI% ≥ 10 are shown) | 11% | – (Only GI% ≥ 10 are shown) | – (Only GI% ≥ 10 are shown) | – (Only GI% ≥ 10 are shown) | 16% | – (Only GI% ≥ 10 are shown) | – (Only GI% ≥ 10 are shown) | – (Only GI% ≥ 10 are shown) | – (Only GI% ≥ 10 are shown) | – (Only GI% ≥ 10 are shown)
6 | 127 to 128 | COCCOC(=O)C1=C(C)NC(C)=C(C(=O)OC)C1c1cccc(C#N)c1 (racemic) [Compound 2d, (±)-3-(2-Methoxyethyl) 5-methyl 4-(3-cyanophenyl)-2,6-dimethyl-1,4-dihydropyridine-3,5-dicarboxylate] | – (Only GI% ≥ 10 are shown) | – (Only GI% ≥ 10 are shown) | – (Only GI% ≥ 10 are shown) | – (Only GI% ≥ 10 are shown) | – (Only GI% ≥ 10 are shown) | – (Only GI% ≥ 10 are shown) | – (Only GI% ≥ 10 are shown) | – (Only GI% ≥ 10 are shown) | – (Only GI% ≥ 10 are shown) | – (Only GI% ≥ 10 are shown) | 12% | – (Only GI% ≥ 10 are shown) | – (Only GI% ≥ 10 are shown) | – (Only GI% ≥ 10 are shown) | – (Only GI% ≥ 10 are shown) | – (Only GI% ≥ 10 are shown)
